Results from patent US4073917A, “Local anesthetics tertiary aminoalkoxyphenyl ethers” (priority 1974, dated 1978).

Legend:
[1] = tested on: back of the guinea-pig (intact skin); assay: surface anesthesia by epicutaneous application to intact skin, pricking test as in the intracutaneous wheal test; type: in vivo, guinea-pig (Dunkin-Hartley, males); details: for Local anesthetic efficiency (percentage block during the 25 min testing period): ± s.e.m.
Excerpt: A. Guinea-pigs (Dunkin-Hartley, males, 4-6 weeks of age 350±50 g) were shaved and depilated. A gauze folded twice (23 mm diameter) was put into the test solution and thereafter in a plastic cup (outer diameter 26 mm, inner diameter 24 mm, inner height 4 mm). The cup with the gauze saturated with test solution was attached to the back of the animal as an occlusive dressing fastened with plaster (25 mm width) wound around the body). […] After the end of the contact time the site of contact was washed and marked with a fatty chalk. With a sharp instrument (e.g. cannula or a pair of tweezers) the place was pricked six times and registering was made as in the intracutaneous wheal test (Bulbring-Wajda: J. Pharmacol., 1945, 85, p 78) on the back of the guinea-pig, i.e. by registering the presence or absence of a characteristic ripple of the skin of the back of the animal. Every pricking which gives no skin contraction was counted. The test was repeated at regular intervals of 5 min, during an interval of 30 min from the end of the application period. The test gives an indication of onset time, depth and duration of block. The percentage block during the 25 min testing period was used as an index for efficiency. The test solution consisted of the test compound (base) dissolved to 10% (w/v, g/ml) in a mixture of isopropanol (65%: v/v), glycerol (25%: v/v) and water (10%: v/v).
The compound according to Example 1 (RAP 411) was tested also with varying concentrations and in the form of a hydrochloride salt in aqueous solution.

[2] = acute toxicity in mice (LD 50); details: mouse, in vivo
Protocol: C. The acute toxicity for the base forms of a number of the new compounds were tested in mice.

sciatic nerve = assay: infiltration anesthesia, sciatic nerve block in the intact guinea-pig (Shackell); type: in vivo
Protocol: B. The compounds according to the invention were also tested as to onset and duration of local anesthetic effect at parenteral administration (infiltration anesthesia). […] Four animals were used at each test. The results are depicted in the following table:
The reference compound being used at this test is 2-(N-ethyl-n-propylamino)-2',6'-n-butyroxylidide (etidocaine).

mice = details: s.c.; taken from Adams et al; cited from earlier work
[3] = 10% (w/v) base in isopropanol 65%/glycerol 25%/water 10%, time of contact 30 min
[4] = 5% base in the alcoholic mixture
[5] = 10% hydrochloride in aqueous solution

CCN(CC)CCCOc1ccccc1OCC(C)C [Example 5, 1-Isobutoxy-2-(3'-diethylaminopropoxy)-benzene]
Local anesthetic efficiency (percentage block during the 25 min testing period) [1, 3]: 75.7 ± 9.4%
LD50 ([2]; iv): 14 mg/kg

CCCOc1ccccc1OCCN(C(C)C)C(C)C [Example 2, 1-n-Propoxy-2-(2'-diisopropylaminoethoxy)-benzene]
Local anesthetic efficiency (percentage block during the 25 min testing period) [1, 3]: 98.6 ± 0.8%

CC(C)COc1ccccc1OCCN(C(C)C)C(C)C [Example 3, 1-Isobutoxy-2-(2'-diisopropylaminoethoxy)-benzene]
Local anesthetic efficiency (percentage block during the 25 min testing period) [1, 3]: 97.2 ± 2.8%
LD50 ([2]; iv): 14 mg/kg
LD50 ([2]; sc): 300 mg/kg

CCCCOc1ccccc1OCCN(C(C)C)C(C)C [Example 1, 1-n-Butoxy-2-(2'-diisopropylaminoethoxy)-benzene]
anesthesia [1, 4]: complete anesthesia
duration of complete anesthesia [1, 4]: at least 30 min
Local anesthetic efficiency (percentage block during the 25 min testing period) [1, 3]: 99.3 ± 0.7%
Flexion reflex block, onset (sciatic nerve; conc. 0.5%, pH 6.0): 1 min
Motor paralysis, onset (sciatic nerve; conc. 0.5%, pH 6.0): 1 min
LD50 ([2]; iv): 15 mg/kg
LD50 ([2]; sc): 250 mg/kg

CCN(CC)CCOc1ccccc1OC [RAP 419, o-methoxy-(diethylaminoethoxy)-benzene, reference compound]
Local anesthetic efficiency (percentage block during the 25 min testing period) [1, 3]: 0%

CCN(CC)CCOc1ccccc1OCC(C)C [Example 4, 1-Isobutoxy-2-(2'-diethylaminoethoxy)-benzene]
Local anesthetic efficiency (percentage block during the 25 min testing period) [1, 3]: 97.2 ± 2.8%
LD50 ([2]; iv): 18 mg/kg

CCN(CC)CC(=O)Nc1c(C)cccc1C [Lidocaine, diethylaminoacet-2,6-xylidide]
Flexion reflex block, duration (sciatic nerve; conc. 2.0%, pH 6.9): 57 ± 7 min
Flexion reflex block, onset (sciatic nerve; conc. 2.0%, pH 6.9): 1 to 2 min
Motor paralysis, duration (sciatic nerve; conc. 2.0%, pH 6.9): 78 ± 5 min
Motor paralysis, onset (sciatic nerve; conc. 2.0%, pH 6.9): 1 min

CCCCOc1ccccc1OCCN1CCCCC1 [Example 6, 1-n-Butoxy-2-(2'-piperidinoethoxy)-benzene]
Local anesthetic efficiency (percentage block during the 25 min testing period) ([1]; 10% (w/v) base in alcoholic mixture, time of contact 15 min): 79.2 ± 12.6%
LD50 ([2]; iv): 9 mg/kg

CCCCOc1ccccc1OCCN(C(C)C)C(C)C.Cl [RAP 411 hydrochloride, 1-n-butoxy-2-(2'-diisopropylaminoethoxy)-benzene hydrochloride]
anesthesia [1, 5]: complete anesthesia
duration of complete anesthesia [1, 5]: at least 30 min

CCCN(CC)C(CC)C(=O)Nc1c(C)cccc1C (centres unmarked) [Etidocaine, 2-(N-ethyl-n-propylamino)-2',6'-n-butyroxylidide]
Flexion reflex block, duration (sciatic nerve; conc. 0.5%, pH 6.0): 84 ± 17 min
Flexion reflex block, onset (sciatic nerve; conc. 0.5%, pH 6.0): 1 to 2 min
Motor paralysis, duration (sciatic nerve; conc. 0.5%, pH 6.0): 131 ± 13 min
Motor paralysis, onset (sciatic nerve; conc. 0.5%, pH 6.0): 1 min
LD 50 (base) (mice): 99 mg/kg
